Data as given in PubChem BioAssay (NCI).
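Briefly, cells in 96-well plates were exposed to five compound concentrations for 48 h, and endpoints were estimated by linear interpolation. At the GI50, growth is halved. TGI: concentration producing complete growth inhibition.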

Key:
Test in all cases: NCI tumour cell line growth inhibition, 48 h
COLO 205 colon = test system: COLO 205 colon
NCI-H522 lung = test system: NCI-H522 lung
OVCAR-3 ovarian = test system: OVCAR-3 ovarian
OVCAR-4 ovarian = test system: OVCAR-4 ovarian
OVCAR-5 ovarian = test system: OVCAR-5 ovarian
SF-268 CNS = test system: SF-268 CNS
SK-MEL-5 melanoma = test system: SK-MEL-5 melanoma
SNB-19 CNS = test system: SNB-19 CNS
U251 CNS = test system: U251 CNS
UO-31 renal = test system: UO-31 renal

Row | Structure (SMILES) | TGI (COLO 205 colon) | TGI (NCI-H522 lung) | TGI (OVCAR-3 ovarian) | TGI (OVCAR-4 ovarian) | TGI (OVCAR-5 ovarian) | TGI (SF-268 CNS) | TGI (SK-MEL-5 melanoma) | TGI (SNB-19 CNS) | TGI (U251 CNS) | TGI (UO-31 renal) | GI50 (COLO 205 colon) | GI50 (OVCAR-3 ovarian) | GI50 (OVCAR-4 ovarian) | GI50 (OVCAR-5 ovarian) | GI50 (SF-268 CNS) | GI50 (SK-MEL-5 melanoma) | GI50 (SNB-19 CNS) | GI50 (U251 CNS) | GI50 (UO-31 renal) | GI50 (NCI-H522 lung)
1 | C=C[C@@H](C)[C@]1(C(=O)OC)CCCC12OCCO2 | > 100 µM | > 100 µM | > 100 µM | > 100 µM | > 100 µM | > 100 µM | > 100 µM | > 100 µM | > 100 µM | > 100 µM | – | – | – | – | – | – | – | – | – | –
2 | CCCCCCCCCCCCCCCC1=NCC[N+]1(CCO)CCO | 3.68 µM | – | 5.74 µM | 26.5 µM | 4.15 µM | 3.46 µM | 16.1 µM | 15.9 µM | 3.03 µM | 3.33 µM | 1.87 µM | 2.52 µM | 4.75 µM | 1.97 µM | 1.71 µM | 4.39 µM | 3.8 µM | 1.64 µM | 1.4 µM | –
3 | O=C(CCC(=O)Nc1ccc(Cl)c(Cl)c1)Cc1nc2ccccc2o1 | > 100 µM | > 100 µM | > 100 µM | > 100 µM | > 100 µM | > 100 µM | > 100 µM | > 100 µM | > 100 µM | > 100 µM | – | – | – | – | – | – | – | – | – | –
4 | Cc1nc([N+](=O)[O-])cn1-c1nc2ccccn2c1[N+](=O)[O-] | > 100 µM | > 100 µM | > 100 µM | > 100 µM | > 100 µM | > 100 µM | > 100 µM | > 100 µM | > 100 µM | > 100 µM | – | – | – | – | – | – | – | – | – | –
5 | O=c1oc2ccc(I)cc2c(=O)n1-c1ccc(Br)cc1F | 11.6 µM | 4.85 µM | 8.89 µM | 16.5 µM | > 100 µM | 8.52 µM | 1.04 µM | > 63.5 µM | > 37.5 µM | 2.72 µM | 3.19 µM | 0.511 µM | 1.12 µM | 3.55 µM | 0.673 µM | 0.317 µM | 0.434 µM | 0.75 µM | 0.33 µM | 0.396 µM
6 | COC(COC(N)=O)C1=C(N2CC2)C(=O)C(C)=C(N2CC2)C1=O (stereo unspecified) | 0.389 µM | 0.156 µM | 0.379 µM | 0.413 µM | 0.71 µM | 0.624 µM | 0.128 µM | 1.75 µM | 0.698 µM | 0.0796 µM | – | – | – | – | – | – | – | – | – | –
7 | CSc1ccc2c(cc1=O)[C@@H](NC(=O)c1cccc([N+](=O)[O-])c1)CCc1cc(O)c(O)c(O)c1-2 | > 100 µM | 68.2 µM | > 100 µM | > 100 µM | > 100 µM | > 100 µM | – | > 100 µM | 51.5 µM | > 100 µM | – | – | – | – | – | – | – | – | – | –
8 | O=c1c2ccccc2sc2c(NCCCNCCO)nc3ccccc3c12 | 3.23 µM | 3.57 µM | 3.65 µM | 6.37 µM | 3.31 µM | 4.24 µM | 3.03 µM | 5.13 µM | 3.57 µM | 3 µM | 1.47 µM | 1.81 µM | 2.17 µM | 1.56 µM | 1.69 µM | 1.64 µM | 2.02 µM | 1.76 µM | 1.18 µM | 1.82 µM
9 | Cc1cnc2ccc(C)c([N+](=O)[O-])c2c1NCCCN(C)C | > 100 µM | > 100 µM | > 100 µM | > 100 µM | > 100 µM | > 100 µM | – | > 100 µM | > 100 µM | > 100 µM | – | – | – | – | – | – | – | – | – | –
